Where two headings read alike, the source gives them in different places.
Test system: HCT-116 Firefly-luciferase reporter cells
Assay: Cellular c-MYC Reporter Assay
Format: cell-based
Conditions: Homo sapiens, read-out: pIC50 (converted)
Procedure, shortened: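 Compound exposure lasted 24 h at 37 °C, 5% CO2, in complete McCoy's 5A medium containing 0.2% DMSO, beginning 4–6 h post-seeding (5e4 cells/mL). Firefly luciferase signal measured by luminescence after 10 min ONE-Glo development at room temperature.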

[1] = untitled table following Table 8a, HCT-116 Firefly-luciferase reporter cells, 24 h

Row | SMILES | IC50 [1] | IC50 (HCT-116, 24 h)
1 | O=C(c1ccc(-n2nnc3cccnc32)cc1F)N(c1nccc2cccc(C(F)(F)F)c12)[C@@H]1CCCNC1 [Example 221, (R)-4-(3H-[1,2,3]triazolo[4,5-b]pyridin-3-yl)-2-fluoro-N-(piperidin-3-yl)-N-(8-(trifluoromethyl)isoquinolin-1-yl)benzamide] | 2000 nM | 
2 | COc1cccc2ccnc(N(C(=O)c3ccc(-n4nnc5cccnc54)cc3F)[C@@H]3CCCNC3)c12 [Example 222, (R)-4-(3H-[1,2,3]triazolo[4,5-b]pyridin-3-yl)-2-fluoro-N-(8-methoxyisoquinolin-1-yl)-N-(piperidin-3-yl)benzamide] | 93.3 nM | 
3 | Cc1cccc2ccnc(N(C(=O)c3ccc(-n4nnc5ccccc54)cc3)[C@@H]3CCCNC3)c12 [Example 223, (R)-4-(1H-benzo[d][1,2,3]triazol-1-yl)-N-(8-methylisoquinolin-1-yl)-N-(piperidin-3-yl)benzamide] | 214 nM | 
4 | Cc1cccc2ccnc(N(C(=O)c3ccc(-n4nnc5cccnc54)cc3)[C@H]3CNCC[C@@H]3C)c12 [Example 224, 4-(3H-[1,2,3]triazolo[4,5-b]pyridin-3-yl)-N-(8-methylisoquinolin-1-yl)-N-((3R,4S)-4-methylpiperidin-3-yl)benzamide] | > 20000 nM | 
5 | Cc1cccc2ccnc(N(C(=O)c3ccc(-n4nnc5cccnc54)cc3)[C@H]3CNC[C@@H](C)C3)c12 [Example 225, 4-(3H-[1,2,3]triazolo[4,5-b]pyridin-3-yl)-N-(8-methylisoquinolin-1-yl)-N-((3R,5S)-5-methylpiperidin-3-yl)benzamide] | 4790 nM | 
6 | Cc1cccc2ccnc(N(C(=O)c3ccc(-n4nnc5cccnc54)cc3)[C@@H]3CC[C@@H](C)NC3)c12 [Example 226, 4-(3H-[1,2,3]triazolo[4,5-b]pyridin-3-yl)-N-(8-methylisoquinolin-1-yl)-N-((3R,6R)-6-methylpiperidin-3-yl)benzamide] | > 20000 nM | 
7 | Cc1cccc2ccnc(N(C(=O)c3ccc(-n4nnc5cccnc54)cc3)[C@H]3CCCCNC3)c12 [Example 227, (S)-4-(3H-[1,2,3]triazolo[4,5-b]pyridin-3-yl)-N-(azepan-3-yl)-N-(8-methylisoquinolin-1-yl)benzamide] | > 20000 nM | 
8 | Cc1cccc2ccnc(N(C(=O)c3ccc(-n4nnc5cccnc54)cc3)[C@H]3CCCNCC3)c12 [Example 228, (S)-4-(3H-[1,2,3]triazolo[4,5-b]pyridin-3-yl)-N-(azepan-4-yl)-N-(8-methylisoquinolin-1-yl)benzamide] |  | > 20000 nM
9 | Cc1cccc2ccnc(N(C(=O)c3ccc(-n4nnc5cccnc54)cc3)[C@@H]3CCCNCC3)c12 [Example 229, (R)-4-(3H-[1,2,3]triazolo[4,5-b]pyridin-3-yl)-N-(azepan-4-yl)-N-(8-methylisoquinolin-1-yl)benzamide] |  | 15100 nM
10 | Cc1cccc2ccnc(N(C(=O)c3ccc(-n4nnc5cccnc54)cc3)[C@H]3CCNC3)c12 [Example 231, (S)-4-(3H-[1,2,3]triazolo[4,5-b]pyridin-3-yl)-N-(8-methylisoquinolin-1-yl)-N-(pyrrolidin-3-yl)benzamide] | > 20000 nM | 
11 | Cc1cccc2ccnc(N(C(=O)c3ccc(-n4nnc5cccnc54)cc3)[C@@H]3CCNC3)c12 [Example 232, (R)-4-(3H-[1,2,3]triazolo[4,5-b]pyridin-3-yl)-N-(8-methylisoquinolin-1-yl)-N-(pyrrolidin-3-yl)benzamide] | 8510 nM | 
12 | Cc1cccc2ccnc(N(C(=O)c3ccc(-c4cccnc4)cc3)[C@@H]3CCCNC3)c12 [Example 233, (R)—N-(8-methylisoquinolin-1-yl)-N-(piperidin-3-yl)-4-(pyridin-3-yl)benzamide] | 708 nM | 
13 | Cc1cccc2ccnc(N(C(=O)c3ccc(-n4ncnn4)cc3)[C@@H]3CCCNC3)c12 [Example 234, (R)—N-(8-methylisoquinolin-1-yl)-N-(piperidin-3-yl)-4-(2H-tetrazol-2-yl)benzamide] |  | 398 nM
14 | Cc1cccc2ccnc(N(C(=O)c3ccc(-n4nccn4)cc3)[C@@H]3CCCNC3)c12 [Example 235, (R)—N-(8-methylisoquinolin-1-yl)-N-(piperidin-3-yl)-4-(2H-1,2,3-triazol-2-yl)benzamide] | 8510 nM | 
15 | Cc1cn(-c2ccc(C(=O)N(c3nccc4cccc(C)c34)[C@@H]3CCCNC3)cc2)nn1 [Example 236, (R)-4-(4-methyl-1H-1,2,3-triazol-1-yl)-N-(8-methylisoquinolin-1-yl)-N-(piperidin-3-yl)benzamide] | 166 nM | 
16 | Cc1cccc2ccnc(N(C(=O)c3ccc(-c4cccnn4)cc3)[C@@H]3CCCNC3)c12 [Example 237, (R)—N-(8-methylisoquinolin-1-yl)-N-(piperidin-3-yl)-4-(pyridazin-3-yl)benzamide] | 589 nM | 
17 | Cc1cccc2ccnc(N(C(=O)c3ccc(-c4cnccn4)cc3)[C@@H]3CCCNC3)c12 [Example 238, (R)—N-(8-methylisoquinolin-1-yl)-N-(piperidin-3-yl)-4-(pyrazin-2-yl)benzamide] | 240 nM | 
18 | Cc1cccc2ccnc(N(C(=O)c3ccc(-c4cnn(C)c4)cc3)[C@@H]3CCCNC3)c12 [Example 239, (R)-4-(1-methyl-1H-pyrazol-4-yl)-N-(8-methylisoquinolin-1-yl)-N-(piperidin-3-yl)benzamide] | 437 nM | 
19 | Cc1cccc2ccnc(N(C(=O)c3ccc(-n4nnc5cccnc54)cc3)[C@@H]3CCCNC3)c12 [Example 241, (R)-4-(3H-[1,2,3]triazolo[4,5-b]pyridin-3-yl)-N-(8-methylisoquinolin-1-yl)-N-(piperidin-3-yl)benzamide] | 60.3 nM | 
20 | Cc1cccc2ccnc(N(C(=O)c3ccc(-n4nnc5cccnc54)cc3F)[C@@H]3CCCNC3)c12 [Example 242, (R)-4-(3H-[1,2,3]triazolo[4,5-b]pyridin-3-yl)-2-fluoro-N-(8-methylisoquinolin-1-yl)-N-(piperidin-3-yl)benzamide] | 38 nM | 
21 | Cc1cccc2ccnc(N(C(=O)c3ccc(-n4nnc5cccnc54)cn3)[C@@H]3CCCNC3)c12 [Example 244, (R)-5-(3H-[1,2,3]triazolo[4,5-b]pyridin-3-yl)-N-(8-methylisoquinolin-1-yl)-N-(piperidin-3-yl)picolinamide] | 107 nM | 
22 | Cc1cccc2ccnc(N(C(=O)c3ccc(-n4nnc5cccnc54)nc3)[C@@H]3CCCNC3)c12 [Example 245, (R)-6-(3H-[1,2,3]triazolo[4,5-b]pyridin-3-yl)-N-(8-methylisoquinolin-1-yl)-N-(piperidin-3-yl)nicotinamide] | 155 nM | 
23 | O=C(c1ccc(-n2nnc3cccnc32)cc1F)N(c1nccc2cccc(Cl)c12)[C@@H]1CCCNC1 [Example 246, (R)-4-(3H-[1,2,3]triazolo[4,5-b]pyridin-3-yl)-N-(8-chloroisoquinolin-1-yl)-2-fluoro-N-(piperidin-3-yl)benzamide] | 33.1 nM | 
24 | CN(C)C(=O)c1cccnc1N(C(=O)c1ccc(-n2nnc3cccnc32)cc1F)[C@@H]1CCCNC1 [Example 247, (R)-2-(4-(3H-[1,2,3]triazolo[4,5-b]pyridin-3-yl)-2-fluoro-N-(piperidin-3-yl)benzamido)-N,N-dimethylnicotinamide] | 5010 nM | 
25 | Cn1cnc2ccnc(N(C(=O)c3ccc(-n4nnc5cccnc54)cc3F)[C@@H]3CCCNC3)c21 [Example 248, (R)-4-(3H-[1,2,3]triazolo[4,5-b]pyridin-3-yl)-2-fluoro-N-(3-methyl-3H-imidazo[4,5-c]pyridin-4-yl)-N-(piperidin-3-yl)benzamide] | 851 nM | 

Reference: patent US20240400555A1 (Initial Therapeutics, Inc., priority 2023, published 2024)
